Assay results taken from publication PMC6264139, “Schiff Bases of Indoline-2,3-dione: Potential Novel Inhibitors of Mycobacterium Tuberculosis (Mtb) DNA Gyrase ^†” (Molecules, 2011).
Values joined by “and” are separate entries in the source; they are usually repeats but may differ in a detail not shown here. Equal values may be shown once.

What follows are compounds tested against Mtb DNA gyrase (Mycobacterium tuberculosis, UniProt P9WG45+P9WG47) (assay: Mtb DNA gyrase supercoiling inhibition assay). Details: Mtb wt gyrase IC50, supercoiling of relaxed pBR322 DNA, 60 minutes at 37 °C, inhibitor 1.56 to 200 µM.
Mtb DNA gyrase, sequence (P9WG45 whole entry): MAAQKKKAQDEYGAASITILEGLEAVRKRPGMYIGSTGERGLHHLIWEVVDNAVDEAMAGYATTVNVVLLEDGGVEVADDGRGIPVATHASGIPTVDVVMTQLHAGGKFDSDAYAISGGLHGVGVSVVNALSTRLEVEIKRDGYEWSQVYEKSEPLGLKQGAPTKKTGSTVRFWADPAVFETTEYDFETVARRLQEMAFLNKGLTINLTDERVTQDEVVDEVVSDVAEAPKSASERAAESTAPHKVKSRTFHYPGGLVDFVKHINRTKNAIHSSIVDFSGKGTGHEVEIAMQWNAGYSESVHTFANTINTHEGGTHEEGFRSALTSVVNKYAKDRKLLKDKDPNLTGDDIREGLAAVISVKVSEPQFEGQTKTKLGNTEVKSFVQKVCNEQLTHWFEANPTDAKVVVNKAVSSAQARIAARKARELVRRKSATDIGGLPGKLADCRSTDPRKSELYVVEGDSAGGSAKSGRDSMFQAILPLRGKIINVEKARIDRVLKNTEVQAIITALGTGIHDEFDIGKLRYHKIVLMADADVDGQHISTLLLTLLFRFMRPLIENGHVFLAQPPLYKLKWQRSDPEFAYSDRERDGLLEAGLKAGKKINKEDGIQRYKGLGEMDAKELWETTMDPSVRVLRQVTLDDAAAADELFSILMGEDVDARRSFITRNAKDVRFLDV
Mtb DNA gyrase, sequence (P9WG47 whole entry): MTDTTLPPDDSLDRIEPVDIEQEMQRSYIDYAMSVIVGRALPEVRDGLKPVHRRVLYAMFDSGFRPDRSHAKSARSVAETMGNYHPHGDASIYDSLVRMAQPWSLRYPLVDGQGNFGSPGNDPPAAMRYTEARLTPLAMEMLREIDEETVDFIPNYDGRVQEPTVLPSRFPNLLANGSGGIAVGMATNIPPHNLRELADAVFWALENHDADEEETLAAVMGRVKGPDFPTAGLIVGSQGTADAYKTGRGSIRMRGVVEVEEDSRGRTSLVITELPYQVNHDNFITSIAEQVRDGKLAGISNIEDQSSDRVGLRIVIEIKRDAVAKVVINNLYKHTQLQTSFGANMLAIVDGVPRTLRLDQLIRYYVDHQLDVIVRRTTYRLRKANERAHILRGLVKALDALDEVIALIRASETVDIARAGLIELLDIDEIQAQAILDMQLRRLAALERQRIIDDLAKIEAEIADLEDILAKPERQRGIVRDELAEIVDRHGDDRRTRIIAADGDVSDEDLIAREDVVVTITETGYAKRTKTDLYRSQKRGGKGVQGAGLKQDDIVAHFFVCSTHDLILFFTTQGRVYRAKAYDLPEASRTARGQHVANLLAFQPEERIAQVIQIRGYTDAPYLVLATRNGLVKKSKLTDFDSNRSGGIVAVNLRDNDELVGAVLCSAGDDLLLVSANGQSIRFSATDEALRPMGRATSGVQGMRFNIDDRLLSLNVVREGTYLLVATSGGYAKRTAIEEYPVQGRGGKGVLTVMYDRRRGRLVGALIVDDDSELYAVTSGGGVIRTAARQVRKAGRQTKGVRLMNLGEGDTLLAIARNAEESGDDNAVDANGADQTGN
Type: biochemical, Mycobacterium tuberculosis strain H37RV
Experimental: Two-fold increases in inhibitor concentrations ranging from 1.56 to 200 µM were added to pBR322 relaxed DNA in the presence of Mtb DNA gyrase enzyme. Control lanes are: Lane 1, DNA with no enzyme or inhibitor and Lane 2, DNA with enzyme but no inhibitor. IC50 values were calculated by measurement of fluorescence intensity after ethidium bromide staining of the supercoiling band at the bottom of the lanes. […] (b) IC50 curves of supercoiling (SC) fluorescence data. DNA fluorescence was quantitated with an Alpha Imager 2200 Analysis System (Cell Biosciences, Santa Clara, CA, USA) and IC50 values were determined by nonlinear regression analysis with Graphpad Prism software (Graphpad Software, Inc., San Diego, CA, USA). IDV = Integrated Density Value.
The isatin Schiff bases synthesized and characterized in this report were tested for their ability to inhibit supercoiling activity of DNA gyrase. DNA gyrase is the only enzyme known so far having the ability to introduce negative supercoils in DNA. In all the species of mycobacteria, including Mtb, DNA gyrase is the sole type II topoisomerase carrying out the reactions of both gyrase and topoisomerase IV. Since the DNA gyrase from Mtb and M. smegmatis are highly similar at a functional as well as a protein sequence level and antigenic properties, Mtb strain H37RV DNA gyrase has been used for carrying out the supercoiling assays.
Relaxed pBR322 DNA (0.1 µg) was incubated with 1 unit of Mtb DNA gyrase for 60 minutes at 37 °C in the following buffer: 2 mM ATP, 4 mM DTT, 25 mM KCl, 6 mM magnesium acetate, 50 µg/mL of molecular grade BSA, 0.1 mg/mL E. coli tRNA, 2mM spermidine, 100 mM potassium glutamate and 40 mM Tris-HCL pH 7.5 (20 µL). Reactions are stopped with 0.5% SDS, 6 mM EDTA, 5.35% glycerol, and 0.013% bromophenol blue (10 µL). Reactions are then loaded onto a 1% agarose/ TBE gel to separate supercoiled and relaxed DNA forms and run overnight at 22 volts. Bands are visualized by staining with 0.5 µg/mL EtBr in 1 × TBE for 40 minutes then washing with dH2O for 120 minutes. Quantification is done on the AlphaImager 2200 system. DNA gyrase subunits, GyrA and GyrB, were isolated from Mtb strain H37RV genomic DNA, expressed and purified in pET overexpression constructs in E coli. One unit of DNA supercoiling activity is defined as the amount that converts ~50% relaxed DNA, in the standard assay, to supercoiled DNA in 60 minutes at 37 °C.

| SMILES | IC50 |
| --- | --- |
| O=C1Nc2ccc(F)cc2/C1=N/NC(=O)c1cc2cc([N+](=O)[O-])ccc2o1 [Compound 21, (Z)-N'-(5-Fluoro-2-oxoindolin-3-ylidene)-5-nitrobenzofuran-2-carbhydrazide] | > 200 µM |
| Cc1cccc(Nc2ccccc2C(=O)N/N=C2\C(=O)N(Cc3ccccc3)c3ccccc32)c1C [Compound 23, (Z)-N'-(1-Benzyl-2-oxoindolin-3-ylidene)-2-(2,3-dimethylphenylamino)benzohydrazide] | > 200 µM |
| O=C1Nc2ccc(Cl)cc2/C1=N/NC(=O)c1cc2ccccc2o1 [Compound 17, (Z)-N'-(5-Chloro-2-oxoindolin-3-ylidene)benzofuran-2-carbohydrazide] | > 200 µM and 294 µM |
| O=C1Nc2ccc(OC(F)(F)F)cc2/C1=N/NC(=O)c1ccncc1 [Compound 7, (Z)-N'-(2-Oxo-5-(trifluoromethoxy)indolin-3-ylidene)isonicotinohydrazide] | > 200 µM |
| O=C(N/N=C1\C(=O)N(c2ccccc2)c2ccccc21)c1cc2ccccc2o1 [Compound 20, (Z)-N'-(2-Oxo-1-phenylindolin-3-ylidene)benzofuran-2-carbohydrazide] | > 200 µM |
| CCn1cc(C(=O)N/N=C2\C(=O)Nc3ccc(F)cc32)c(=O)c2ccc(C)nc21 [Compound 26, (Z)-1-Ethyl-N'-(5-fluoro-2-oxoindolin-3-ylidene)-7-methyl-4-oxo-1,4-dihydro-1,8-naphthyridine-3-carbohydrazide] | > 200 µM |
| O=C1Nc2ccc(F)cc2/C1=N/NC(=O)c1ccncc1 [Compound 5, (Z)-N'-(5-Fluoro-2-oxoindolin-3-ylidene)isonicotinohydrazide] | > 200 µM |
| O=C(N/N=C1\C(=O)N(Cc2ccccc2)c2ccc(Cl)cc21)c1ccncc1 [Compound 11, (Z)-N'-(1-Benzyl-5-chloro-2-oxoindolin-3-ylidene)isonicotinohydrazide] | > 200 µM |
| O=C1Nc2ccc(Cl)cc2/C1=N/NC(=O)c1ccncc1 [Compound 4, (Z)-N'-(5-Chloro-2-oxoindolin-3-ylidene)isonicotinohydrazide] | > 200 µM |
| Cc1ccc2c(c1)/C(=N/NC(=O)c1cc3ccccc3o1)C(=O)N2 [Compound 18, (Z)-N'-(5-Methyl-2-oxoindolin-3-ylidene)benzofuran-2-carbohydrazide] | ~50 µM and 56.3 µM |
| O=C1Nc2ccc([N+](=O)[O-])cc2/C1=N/NC(=O)c1ccncc1 [Compound 8, (Z)-N'-(5-Nitro-2-oxoindolin-3-ylidene)isonicotinohydrazide] | 157 µM |
| O=C1Nc2ccc(OC(F)(F)F)cc2/C1=N/NC(=O)c1ccccc1Nc1cccc(C(F)(F)F)c1 [Compound 25, (Z)-N'-(2-Oxo-5-(trifluoromethoxy)indolin-3-ylidene)-2-(3-(trifluoromethyl)phenylamino)-benzo-hydrazide] | > 200 µM |
| O=C1Nc2ccccc2/C1=N/NC(=O)c1ccncc1 [Compound 3, (Z)-N'-(2-Oxoindolin-3-ylidene)isonicotinohydrazide] | > 200 µM |
| O=C(N/N=C1\C(=O)N(Cc2ccccc2)c2ccccc21)c1ccncc1 [Compound 10, (Z)-N'-(1-Benzyl-2-oxoindolin-3-ylidene)isonicotinohydrazide] | > 200 µM |
| O=C(N/N=C1\C(=O)N(c2ccccc2)c2ccccc21)c1ccncc1 [Compound 9, (Z)-N'-(2-Oxo-1-phenylindolin-3-ylidene)isonicotinohydrazide] | > 200 µM |
| Cc1ccc2c(c1)/C(=N/NC(=O)c1ccncc1)C(=O)N2Cc1ccccc1 [Compound 13, (Z)-N'-(1-Benzyl-5-methyl-2-oxoindolin-3-ylidene)isonicotinohydrazide] | > 200 µM |
| O=C1Nc2ccccc2/C1=N/NC(=O)c1cccnc1 [Compound 14, (Z)-N'-(2-Oxoindolin-3-ylidene)nicotinohydrazide] | > 200 µM |
| Cc1ccc2c(c1)/C(=N/NC(=O)c1ccncc1)C(=O)N2 [Compound 6, (Z)-N'-(5-Methyl-2-oxoindolin-3-ylidene)isonicotinohydrazide] | > 200 µM |
| O=C1Nc2ccc(F)cc2/C1=N/NC(=O)c1ccco1 [Compound 15, (Z)-N'-(5-Fluoro-2-oxoindolin-3-ylidene)furan-2-carbhydrazide] | > 200 µM |
| Cc1ccc2c(c1)/C(=N/NC(=O)c1ccccc1Nc1c(Cl)ccc(C)c1Cl)C(=O)N2 [Compound 24, (Z)-2-(2,6-Dichloro-3-methylphenylamino)-N'-(5-methyl-2-oxoindolin-3-ylidene)-benzohydrazide] | > 200 µM |
| O=C1Nc2ccc([N+](=O)[O-])cc2/C1=N/NC(=O)c1cc2ccccc2o1 [Compound 19, (Z)-N'-(5-Nitro-2-oxoindolin-3-ylidene)benzofuran-2-carbohydrazide] | 89.9 µM |
| O=C(N/N=C1\C(=O)N(Cc2ccccc2)c2ccc(F)cc21)c1ccncc1 [Compound 12, (Z)-N'-(1-Benzyl-5-fluoro-2-oxoindolin-3-ylidene)isonicotinohydrazide] | > 200 µM |
| O=C1Nc2ccccc2/C1=N/NC(=O)c1ccc([N+](=O)[O-])o1 [Compound 16, (Z)-5-Nitro-N'-(2-Oxoindolin-3-ylidene)furan-2-carbohydrazide] | > 200 µM |

Same assay, conditions: supercoiling of relaxed pBR322 DNA, 60 minutes at 37 °C, inhibitor 1.56 to 200 µM; read-out: Mtb wt gyrase IC50

| SMILES | IC50 [µM] |
| --- | --- |
| O=C1/C(=N\NC(=O)C23CC4CC(CC(C4)C2)C3)c2ccccc2N1c1ccccc1 [Compound 22, (Z)-N'-(2-oxo-1-phenylindolin-3-ylidene)adamantane-1-carbohydrazide] | > 200 |
